Reference: patent US20090169494A1, “Sunscreen cosmetic composition” (Shiseido Company Ltd, priority 2005, published 2009)

Test: Solubility of the triazine UV absorbent in oil components A-E
Type: physicochemical
Settings: dissolved at 80° C., three days stirring at 0° C., supernatant absorbance at 342.8 nm; FIG. 1
Description: Solubility of 2,4-bis[[4-(2-ethylhexyloxy)-2-hydroxy]phenyl]-6-(4-methoxyphenyl)-1,3,5-triazine in the following oil components A-E was measured.
2,4-bis[[4-(2-ethylhexyloxy)-2-hydroxy]phenyl]-6-(4-methoxyphenyl)-1,3,5-triazine is heated and dissolved at 80° C. in each of the aforementioned oil components A-E. After the temperature naturally cools down to room temperature, a small amount of 2,4-bis[[4-(2-ethylhexyloxy)-2-hydroxy]phenyl]-6-(4-methoxyphenyl)-1,3,5-triazine in powder form is added, followed by three days of stirring and cooling (stirrer) at 0° C. After this, the supernatant solution is quickly sampled before the temperature rises and 30 mg (actual measurement) of it is diluted to 100 mL of ethyl acetate. The absorbance at 342.8 nm of the obtained diluted solution is measured. The obtained absorbance is plotted against a previously prepared calibration curve to determine the solubility.

Row | SMILES | Solubility of 2,4-bis[[4-(2-ethylhexyloxy)-2-hydroxy]phenyl]-6-(4-methoxyphenyl)-1,3,5-triazine in the oil component
1 | CC(C)COc1ccc(-n2nc3ccccc3n2)c(O)c1 [Oil component E, 2-(2-hydroxy-4-isobutoxyphenyl)-2H-benzotriazole] | particularly good
2 | CCCCC(CC)COc1ccc(-n2nc3ccccc3n2)c(O)c1 (centres unmarked) [Oil component D, 2-[4-(2-ethylhexyloxy)-2-hydroxyphenyl]-2H-benzotriazole] | particularly good
